{"source": "patent US20240125770A1", "about": "“CELL ANALYSIS” (University of Dundee, priority 2021, published 2024)", "test_system": "human iPSC lines", "test": "Cell painting assay (image-based cell phenotyping) on a panel of human iPSC lines from different donors", "settings": "24 hrs; for Changes of features in the cell nucleus across cell lines: etoposide 1.7 μM, irinotecan 5 μM, nuclear painting probes; for Uniformity or variation of response between human iPSC lines in UMAP embedding: panel of human iPSC lines from different donors, concentration of Table 2 (5 μM; fenbendazole 3.34 μM); for UMAP embedding of cell painting features: cluster: panel of HipSci human iPSC lines, clusters: 1 DMSO and weak responders, 2 Atorvastatin, Simvastatin, Fluphenazine, 3 Afatinib, Erlotinib, Everolimus and Rapamycin, 4 DNA damaging agents and topoisomerase inhibitors, 5 non-microtubule targeting cytotoxics, 6 Microtubule polymerization effectors; for Response to drug in UMAP embedding, cell lines paim3 and pelm1: paim3 and pelm1 lines (FIG. 7 legend prints pelm3)", "method": "384-well tissue culture plates (CellCarrier-384 Ultra Microplates, Perkin Elmer 6057300) were coated with human plasma fibronectin (Merck Millipore FC010) at a concentration of 5 μg/cm^2. Cells were passaged as described above with TrypLE Select, counted and seeded on the fibronectin coated wells at a concentration of 3×10^4/cm^2. Cell line plating was in rows, with three wells per condition for each cell line. Cells were incubated for 24 hrs prior to drug treatment, followed by a further 24 hrs incubation before final fixation and staining and high content imaging. Antibody staining of a separate 384-well plate at 48 hrs confirmed that pluripotency was maintained at 48 hrs.\nAll fixation, permeabilisation and immunostaining were performed at room temperature. Paraformaldehyde 8% in PBS (PFA, Sigma F8775) was added to an equal volume of medium for a final concentration of 4% and incubated for 15 min. Fixed cells were washed in PBS and permeabilised with 0.1% v/v Triton-X100 (Sigma) for 15 min. Following permeabilisation, cells were washed in TBS and stained with DAPI (Thermo Fisher D1306), SYTO 14 (Thermo Fisher S7576), Concanavalin A (Thermo Fisher C11252), Phalloidin Alexa (Thermo Fisher A12381), and WGA (Thermo Fisher W11262) for 1 hr. Mitotracker (Thermo Fisher M22426) staining was performed in live cells with a 30 min incubation at 37° C. prior to fixation. Cell fixation, permeabilisation, staining and washing steps were performed using automated liquid handling systems (405 plate washer, BioTek—Tempest, Formulatrix).\nDrug dosing on 384-well plates was performed using an Echo acoustic liquid handler and corresponding software (Labcyte). Screened compounds were selected from the appropriate chemical library plates containing Cloud library (Enamine) and NPSC Control library. For etoposide drug dosing was performed at 1.7 μM. […]\nAll imaging data were collected on an InCell 2200 high content imager, with a 20× lens and a Quad2 multichroic mirror (GE, Issaquah, WA).\nRaw images were imported into OMERO Plus (Glencoe Software, Inc., (9)) and then processed using a custom pipeline in CellProfiler (8) which segmented nuclei, cytoplasm, golgi and cortical protrusions and calculated a range of defined features. All further steps were executed using the Pandas Python library (10). Features for each plate were normalised by the median of features in DMSO control for that plate. Features whose coefficient of variation was greater than 0.50 were removed from further analysis (typically these were Zernike Phase features). We further removed all features with |Spearman coefficient|>0.98. Z-normalised data were then visualised using principal component analysis (PCA) and Uniform Manifold Approximation and Projection (UMAP (11)). For PCA, we calculated the first 15 principal components and variance included in the first two principal components was 77.1%. UMAP parameters were n_neighbours=15, mindist=0.01 and a cosine metric for scaling distance between points. GO enrichment analysis was carried out using WebGestalt (WEB-based Gene SeT AnaLysis Toolkit) (12)\nWe next used a selection of human iPSCs from the HipSci cohort to test our ability to detect differential effects of FDA-approved drugs, using an image-based cell phenotyping assay. All selected human iPSC lines were previously subjected to whole genome sequencing (https://www.hipsci.org) and the genome data are publicly available. Cells from selected human iPSC lines (Table 1), were grown in 384 well plates, treated with selected compounds (drugs and concentrations used are shown in Table 2), for 24 hrs, then fixed and stained with cell painting markers (see Materials and Methods). Images were recorded in an automated, plate-based imager, then imported into OMERO (9). Images were segmented with respect to the features, ‘nuclei’, ‘cytoplasm’, ‘Golgi’ and ‘protrusions’, using a custom CellProfiler pipeline (13) and image features were then calculated (˜300 features per cell compartment). […]", "note": "“Also recorded” adds a separate entry of the source.", "data": [{"smiles": "COc1cc([C@@H]2c3cc4c(cc3[C@@H](O[C@@H]3O[C@@H]5CO[C@@H](C)O[C@H]5[C@H](O)[C@H]3O)[C@H]3COC(=O)[C@H]23)OCO4)cc(OC)c1O", "note": "[Etoposide]", "values": [{"measurement": "Changes of features in the cell nucleus across cell lines", "result": "cause similar changes in multiple cell lines"}]}, {"smiles": "COC(=O)Nc1nc2ccc(Sc3ccccc3)cc2[nH]1", "note": "[Fenbendazole]", "values": [{"measurement": "Uniformity or variation of response between human iPSC lines in UMAP embedding", "result": "splitting of clusters"}]}, {"smiles": "CCc1c2c(nc3ccc(OC(=O)N4CCC(N5CCCCC5)CC4)cc13)-c1cc3c(c(=O)n1C2)COC(=O)[C@]3(O)CC", "note": "[Irinotecan]", "values": [{"measurement": "Changes of features in the cell nucleus across cell lines", "result": "cause similar changes in multiple cell lines"}]}, {"smiles": "O=c1[nH]cc(F)c(=O)[nH]1", "note": "[5-FU]", "values": [{"measurement": "Uniformity or variation of response between human iPSC lines in UMAP embedding", "result": "Most cells responded to 5-FU (cluster 1, red, FIG. 3A), but several showed a response indistinguishable from DMSO"}]}, {"smiles": "CC(C)c1c(C(=O)Nc2ccccc2)c(-c2ccccc2)c(-c2ccc(F)cc2)n1CC[C@@H](O)C[C@@H](O)CC(=O)O", "note": "[Atorvastatin]", "values": [{"measurement": "Magnitude of response: heatmap of deviations of all features from DMSO", "setting": "all cell lines, before Z normalization, 5 μM, FIG. 5A", "result": "the magnitude of the responses differ between the different cell lines"}, {"measurement": "UMAP embedding of cell painting features: cluster", "setting": "5 μM", "result": "cluster 2"}, {"measurement": "Uniformity or variation of response between human iPSC lines in UMAP embedding", "result": "tight clustering in UMAP embedding"}]}, {"smiles": "C#Cc1cccc(Nc2ncnc3cc(OCCOC)c(OCCOC)cc23)c1", "note": "[Erlotinib]", "values": [{"measurement": "Response to drug in UMAP embedding, all other / majority of human iPSC lines", "setting": "human iPSC lines other than paim3 and pelm1, 5 μM", "result": "resembles rapamycin and everolimus; also recorded: clustered with rapamycin and everolimus"}, {"measurement": "Response to drug in UMAP embedding, cell lines paim3 and pelm1", "setting": "5 μM", "result": "afatinib cluster"}, {"measurement": "Response to drug in UMAP embedding, cell lines paim3 and pelm1", "setting": "5 μM, listed as erlotinib", "result": "clustered with afatinib"}, {"measurement": "Uniformity or variation of response between human iPSC lines in UMAP embedding", "result": "differential response of some lines"}, {"measurement": "Response to drug in UMAP embedding, cell line voce2", "setting": "voce2 line (along with the majority of hiPSCs), 5 μM, FIG. 7", "result": "Erlotinib cluster"}, {"measurement": "Response to drug in UMAP embedding, cell line zaie1", "setting": "zaie1 line, 5 μM, FIG. 7", "result": "weak responders group"}]}, {"smiles": "CO[C@H]1C[C@@H]2CC[C@@H](C)[C@@](O)(O2)C(=O)C(=O)N2CCCC[C@H]2C(=O)O[C@H]([C@H](C)C[C@@H]2CC[C@@H](OCCO)[C@H](OC)C2)CC(=O)[C@H](C)/C=C(\\C)[C@@H](O)[C@@H](OC)C(=O)[C@H](C)C[C@H](C)/C=C/C=C/C=C/1C", "note": "[Everolimus]", "values": [{"measurement": "UMAP embedding of cell painting features: cluster", "setting": "5 μM", "result": "cluster 3"}]}, {"smiles": "O=C(CCCCCCC(=O)Nc1ccccc1)NO", "note": "[Vorinostat]", "values": [{"measurement": "Uniformity or variation of response between human iPSC lines in UMAP embedding", "result": "splitting of clusters"}]}]}
